# Measured values as given in PubChem BioAssay (NCI).
#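 Cells were grown in 96-well plates and exposed to each compound for 48 hours at five concentrations; endpoints were interpolated linearly between bracketing concentrations, or set to the highest concentration if not reached. GI50: concentration for 50% inhibition of growth. The concentration for full growth arrest is given as TGI.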
# Assays:
# Assay in all cases: NCI tumour cell line growth inhibition, 48 h
# 786-0 renal = tested on: 786-0 renal
# A498 renal = tested on: A498 renal
# EKVX NSCLC = tested on: EKVX NSCLC
# K-562 leukemia = tested on: K-562 leukemia
# M14 melanoma = tested on: M14 melanoma
# OVCAR-8 ovarian = tested on: OVCAR-8 ovarian
# SF-295 CNS = tested on: SF-295 CNS
# HS 578T breast = tested on: HS 578T breast
# T-47D breast = tested on: T-47D breast
# SR leukemia = tested on: SR leukemia
compound,measurement,setting,value
O=C(CC1(O)C(=O)Nc2c(Cl)cc(Cl)cc21)c1ccc2ccccc2c1 (stereo not given),TGI,786-0 renal,23.8 µM
same,TGI,A498 renal,24.8 µM
same,TGI,EKVX NSCLC,23.4 µM
same,TGI,K-562 leukemia,18.3 µM
same,TGI,M14 melanoma,16.6 µM
same,TGI,OVCAR-8 ovarian,26 µM
same,TGI,SF-295 CNS,21.3 µM
C=CCN(N=O)C(=O)N(CCC)CCCCC(NC(C)=O)C(=O)NCc1ccccc1 (stereo not given),TGI,786-0 renal,> 100 µM
same,TGI,A498 renal,> 100 µM
same,TGI,EKVX NSCLC,> 100 µM
same,TGI,K-562 leukemia,> 100 µM
same,TGI,M14 melanoma,> 100 µM
same,TGI,OVCAR-8 ovarian,> 100 µM
same,TGI,SF-295 CNS,> 100 µM
Cc1ccc(S(=O)(=O)n2cc(C(=O)C(=O)Nc3ccncc3)c3ccccc32)cc1,GI50,786-0 renal,3.89 µM
same,TGI,786-0 renal,> 73.2 µM
same,GI50,A498 renal,4110 nM
same,TGI,A498 renal,77.6 µM
same,GI50,EKVX NSCLC,3.23 µM
same,TGI,EKVX NSCLC,> 100 µM
same,TGI,HS 578T breast,> 100 µM
same,GI50,K-562 leukemia,522 nM
same,TGI,K-562 leukemia,> 100 µM
same,GI50,M14 melanoma,907 nM
same,TGI,M14 melanoma,> 100 µM
same,GI50,OVCAR-8 ovarian,3.1 µM
same,TGI,OVCAR-8 ovarian,> 100 µM
same,GI50,SF-295 CNS,1670 nM
same,TGI,SF-295 CNS,9.57 µM
same,GI50,T-47D breast,4.93 µM
same,TGI,T-47D breast,> 100 µM
COc1ccc2c(c1)[n+]([O-])c(-c1nc3ccccc3s1)c(N)[n+]2[O-],TGI,786-0 renal,> 100 µM
same,TGI,A498 renal,> 100 µM
same,TGI,EKVX NSCLC,> 100 µM
same,TGI,K-562 leukemia,> 100 µM
same,TGI,M14 melanoma,> 100 µM
same,TGI,OVCAR-8 ovarian,> 100 µM
same,TGI,SF-295 CNS,> 100 µM
same,TGI,SR leukemia,> 100 µM
COC(=O)C1=CC2OC1(C)C1(CC1)C2=O (stereo not given),TGI,786-0 renal,31.8 µM
same,TGI,EKVX NSCLC,29 µM
same,TGI,K-562 leukemia,41.9 µM
same,TGI,M14 melanoma,29.1 µM
same,TGI,OVCAR-8 ovarian,31.3 µM
same,TGI,SF-295 CNS,34.4 µM
same,TGI,SR leukemia,34.6 µM
COc1ccc(OC)c2cc(C3(C)SCCCS3)ccc12,TGI,786-0 renal,> 100 µM
same,TGI,A498 renal,> 100 µM
same,TGI,EKVX NSCLC,> 100 µM
same,TGI,K-562 leukemia,> 100 µM
same,TGI,M14 melanoma,> 100 µM
same,TGI,OVCAR-8 ovarian,> 100 µM
same,TGI,SF-295 CNS,> 100 µM
O=C(CC(=O)C(F)(F)F)c1csc2ccccc12,TGI,786-0 renal,> 100 µM
same,TGI,EKVX NSCLC,> 100 µM
same,TGI,K-562 leukemia,> 100 µM
same,TGI,M14 melanoma,68.9 µM
same,TGI,OVCAR-8 ovarian,60.2 µM
same,TGI,SF-295 CNS,37 µM
same,TGI,SR leukemia,50.1 µM
CC12CC3CC(C)(C1)CC(N=[N+]=[N-])(C3)C2,TGI,786-0 renal,> 100 µM
same,TGI,A498 renal,> 100 µM
same,TGI,EKVX NSCLC,> 100 µM
same,TGI,K-562 leukemia,> 100 µM
same,TGI,M14 melanoma,> 100 µM
same,TGI,OVCAR-8 ovarian,> 100 µM
same,TGI,SF-295 CNS,> 100 µM
same,TGI,SR leukemia,> 100 µM
COC(=O)C1=CC2OC13CC1CCC3(C2=O)C1(C)C (stereo not given),TGI,786-0 renal,30.7 µM
same,TGI,A498 renal,49 µM
same,TGI,K-562 leukemia,56.4 µM
same,TGI,M14 melanoma,28.3 µM
same,TGI,OVCAR-8 ovarian,23.8 µM
same,TGI,SF-295 CNS,40.5 µM
Cc1ccc(C2=NO[C@@H]3C(=O)N(c4ccc(Cc5ccc(N6C(=O)[C@H]7C(c8ccc(C)cc8)=NO[C@H]7C6=O)cc5)cc4)C(=O)[C@H]23)cc1,TGI,786-0 renal,> 100 µM
same,TGI,A498 renal,> 100 µM
same,TGI,EKVX NSCLC,> 100 µM
same,TGI,K-562 leukemia,> 100 µM
same,TGI,M14 melanoma,> 100 µM
same,TGI,OVCAR-8 ovarian,> 100 µM
same,TGI,SF-295 CNS,> 100 µM
CN=S(=O)(C[C@]1(O)CC2OC1C1OC(C)(C)OC21)c1ccccc1 (stereo not given in full),TGI,786-0 renal,> 100 µM
same,TGI,A498 renal,> 100 µM
same,TGI,EKVX NSCLC,> 100 µM
same,TGI,K-562 leukemia,> 100 µM
same,TGI,M14 melanoma,> 100 µM
same,TGI,OVCAR-8 ovarian,> 100 µM
same,TGI,SF-295 CNS,> 100 µM
CC(=O)Nc1ccc(/C=C/C(=O)c2sc(C(N)=S)nc2C)cc1,TGI,786-0 renal,> 100 µM
same,TGI,A498 renal,> 100 µM
same,TGI,EKVX NSCLC,> 100 µM
same,TGI,K-562 leukemia,> 100 µM
same,TGI,OVCAR-8 ovarian,> 100 µM
same,TGI,SF-295 CNS,> 100 µM
COc1ccccc1NC(=O)C1=C(C)NC(C)=C(C(=O)Nc2ccccc2OC)C1c1ccccc1OC,TGI,786-0 renal,> 100 µM
same,TGI,A498 renal,> 100 µM
same,TGI,EKVX NSCLC,> 100 µM
same,TGI,K-562 leukemia,> 100 µM
same,TGI,M14 melanoma,> 100 µM
same,TGI,OVCAR-8 ovarian,> 100 µM
same,TGI,SF-295 CNS,> 100 µM
same,TGI,SR leukemia,> 100 µM
Cc1c(Cl)ccc2c1NC(=O)C2(O)C1Cc2ccccc2C1=O (stereo not given),TGI,786-0 renal,> 100 µM
same,TGI,A498 renal,> 100 µM
same,TGI,EKVX NSCLC,> 100 µM
same,TGI,K-562 leukemia,> 100 µM
same,TGI,M14 melanoma,> 100 µM
same,TGI,OVCAR-8 ovarian,> 100 µM
same,TGI,SF-295 CNS,> 100 µM
same,TGI,SR leukemia,> 100 µM
COC(=O)C(=O)C(C(=O)C(=O)Nc1cc([N+](=O)[O-])ccc1[N+](=O)[O-])c1nc2ccc(C(=O)c3ccccc3)cc2[nH]c1=O (stereo not given),TGI,786-0 renal,> 100 µM
same,TGI,A498 renal,63.4 µM
same,TGI,EKVX NSCLC,> 100 µM
same,TGI,K-562 leukemia,91.3 µM
same,TGI,M14 melanoma,98.8 µM
same,TGI,OVCAR-8 ovarian,> 100 µM
same,TGI,SF-295 CNS,> 100 µM
same,TGI,SR leukemia,60.2 µM
CC(C)(O)[C@H]1[C@@H]2OC(=O)[C@H]1[C@]1(O)C[C@H]3OC34C(=O)O[C@H]2[C@@]41C (stereo not given in full) (tested in a mixture with another compound),TGI,786-0 renal,> 100 µM
same,TGI,A498 renal,> 100 µM
same,TGI,EKVX NSCLC,> 100 µM
same,TGI,HS 578T breast,> 100 µM
same,TGI,K-562 leukemia,> 100 µM
same,TGI,M14 melanoma,> 100 µM
same,TGI,OVCAR-8 ovarian,> 100 µM
same,TGI,SF-295 CNS,> 100 µM
same,TGI,T-47D breast,> 100 µM
CC[C@H](C)C(=O)O[C@H]1CCC=C2C=C[C@H](C)C(CCC3C[C@@H](O)CC(=O)O3)[C@H]21 (stereo not given in full),GI50,786-0 renal,8.71 µM
same,TGI,786-0 renal,> 100 µM
same,GI50,A498 renal,18.3 nM
same,TGI,A498 renal,2.42 µM
same,GI50,EKVX NSCLC,12.5 µM
same,TGI,EKVX NSCLC,> 100 µM
same,GI50,HS 578T breast,5.19 µM
same,TGI,HS 578T breast,> 100 µM
same,TGI,M14 melanoma,> 100 µM
same,GI50,OVCAR-8 ovarian,3.78 µM
same,TGI,OVCAR-8 ovarian,> 100 µM
same,GI50,SF-295 CNS,1580 nM
same,TGI,SF-295 CNS,> 100 µM
same,TGI,T-47D breast,> 100 µM
CCN(CC)c1ccc2c(c1)N=C1N=CC=CN1C2(c1ccc(N(C)C)cc1)c1ccc(N(C)C)cc1,TGI,786-0 renal,24.1 µM
same,TGI,A498 renal,33.3 µM
same,TGI,EKVX NSCLC,23.8 µM
same,TGI,K-562 leukemia,5.96 µM
same,TGI,M14 melanoma,10.5 µM
same,TGI,OVCAR-8 ovarian,17.5 µM
same,TGI,SF-295 CNS,15.6 µM
same,TGI,SR leukemia,12.9 µM
O=C(NCC#CCO)C(F)(F)F,TGI,786-0 renal,> 100 µM
same,TGI,A498 renal,> 100 µM
same,TGI,EKVX NSCLC,> 100 µM
same,TGI,M14 melanoma,> 100 µM
same,TGI,OVCAR-8 ovarian,> 100 µM
same,TGI,SR leukemia,> 100 µM
O=C(Cn1ccnc1[N+](=O)[O-])NCC(F)(F)C(F)(F)F,GI50,786-0 renal,> 100 µM
same,TGI,786-0 renal,> 100 µM
same,GI50,A498 renal,> 100000 nM
same,TGI,A498 renal,> 100 µM
same,GI50,EKVX NSCLC,> 100 µM
same,TGI,EKVX NSCLC,> 100 µM
same,GI50,HS 578T breast,> 100 µM
same,TGI,HS 578T breast,> 100 µM
same,GI50,M14 melanoma,> 100000 nM
same,TGI,M14 melanoma,> 100 µM
same,GI50,OVCAR-8 ovarian,> 100 µM
same,TGI,OVCAR-8 ovarian,> 100 µM
same,GI50,SF-295 CNS,> 100000 nM
same,TGI,SF-295 CNS,> 100 µM
same,GI50,T-47D breast,> 100 µM
same,TGI,T-47D breast,> 100 µM
Nc1nc(N)c(-c2ccc(Cl)cc2)c(CCC(=O)Nc2cccc(C(F)(F)F)c2)n1,TGI,786-0 renal,> 100 µM
same,TGI,A498 renal,> 100 µM
same,TGI,EKVX NSCLC,> 100 µM
same,TGI,K-562 leukemia,> 100 µM
same,TGI,M14 melanoma,> 100 µM
same,TGI,OVCAR-8 ovarian,> 100 µM
same,TGI,SF-295 CNS,> 100 µM
same,TGI,SR leukemia,> 100 µM
CCNc1nc(N2CC(=O)Nc3cc(OC)ccc32)c2ccccc2n1,GI50,786-0 renal,0.00994 µM
same,TGI,786-0 renal,> 100 µM
same,GI50,A498 renal,1.51 nM
same,TGI,EKVX NSCLC,> 100 µM
same,GI50,HS 578T breast,0.00164 µM
same,TGI,HS 578T breast,47.8 µM
same,GI50,K-562 leukemia,0.351 nM
same,TGI,K-562 leukemia,> 100 µM
same,GI50,M14 melanoma,0.363 nM
same,TGI,M14 melanoma,> 100 µM
same,GI50,OVCAR-8 ovarian,0.000945 µM
same,TGI,OVCAR-8 ovarian,> 100 µM
same,GI50,SF-295 CNS,1.29 nM
same,TGI,SF-295 CNS,0.00614 µM
same,GI50,T-47D breast,0.253 µM
same,TGI,T-47D breast,52.9 µM
